Earlier results, collected in patent publication US12161617B2, “Methocarbamol compositions and related methods” (Exela Sterile Medicines LLC, priority 2014, dated 2024).

- differences with respect to methocarbamol absorption (patients undergoing maintenance haemodialysis vs normal subjects): no significant differences
- relative systemic availability in patients (renal dialysis patients relative to normal subjects): 113%
Compound: COc1ccccc1OCC(O)COC(N)=O (centres unmarked) [methocarbamol, 3-(2-methoxyphenoxy)-1,2-propanediol 1-carbamate]
